Experimental data published in patent US12054486B2, “Pyridine derivatives and their use as sodium channel activators” (Xenon Pharmaceuticals Inc., priority 2021, dated 2024).

Legend:
[1] = target: sodium channel isoforms of interest stably expressed in Human Embryonic Kidney Cells (voltage-gated sodium channel, particularly NaV1.1) (Homo sapiens, UniProt P35498); assay: automated planar patch clamp assay of sodium channel gating (area under the sodium current trace); format: cell-based; conditions: HEK cells, voltage step from −120 mV to 0 mV, increasing concentrations
Outline: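 Sodium channel isoforms stably expressed in HEK cells, recorded by automated planar patch clamp with depolarizing steps from −120 mV to 0 mV at increasing compound concentrations. Area under the current trace quantifies gating effect; peak current, inactivation time constant and steady-state inactivation also measured; potency from concentration responses.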

NaV1.1 = NaV1.1 (Homo sapiens, UniProt P35498); conditions: NaV1.1-expressing HEK cells; cited from earlier work
NaV1.5 = NaV1.5 (Homo sapiens, UniProt Q14524); conditions: relative to NaV1.1 activation; cited from earlier work
NaV1.2 = NaV1.2 (Homo sapiens, UniProt Q99250); conditions: relative to NaV1.1 activation; cited from earlier work
Sequence of NaV1.2 (Q99250 whole entry): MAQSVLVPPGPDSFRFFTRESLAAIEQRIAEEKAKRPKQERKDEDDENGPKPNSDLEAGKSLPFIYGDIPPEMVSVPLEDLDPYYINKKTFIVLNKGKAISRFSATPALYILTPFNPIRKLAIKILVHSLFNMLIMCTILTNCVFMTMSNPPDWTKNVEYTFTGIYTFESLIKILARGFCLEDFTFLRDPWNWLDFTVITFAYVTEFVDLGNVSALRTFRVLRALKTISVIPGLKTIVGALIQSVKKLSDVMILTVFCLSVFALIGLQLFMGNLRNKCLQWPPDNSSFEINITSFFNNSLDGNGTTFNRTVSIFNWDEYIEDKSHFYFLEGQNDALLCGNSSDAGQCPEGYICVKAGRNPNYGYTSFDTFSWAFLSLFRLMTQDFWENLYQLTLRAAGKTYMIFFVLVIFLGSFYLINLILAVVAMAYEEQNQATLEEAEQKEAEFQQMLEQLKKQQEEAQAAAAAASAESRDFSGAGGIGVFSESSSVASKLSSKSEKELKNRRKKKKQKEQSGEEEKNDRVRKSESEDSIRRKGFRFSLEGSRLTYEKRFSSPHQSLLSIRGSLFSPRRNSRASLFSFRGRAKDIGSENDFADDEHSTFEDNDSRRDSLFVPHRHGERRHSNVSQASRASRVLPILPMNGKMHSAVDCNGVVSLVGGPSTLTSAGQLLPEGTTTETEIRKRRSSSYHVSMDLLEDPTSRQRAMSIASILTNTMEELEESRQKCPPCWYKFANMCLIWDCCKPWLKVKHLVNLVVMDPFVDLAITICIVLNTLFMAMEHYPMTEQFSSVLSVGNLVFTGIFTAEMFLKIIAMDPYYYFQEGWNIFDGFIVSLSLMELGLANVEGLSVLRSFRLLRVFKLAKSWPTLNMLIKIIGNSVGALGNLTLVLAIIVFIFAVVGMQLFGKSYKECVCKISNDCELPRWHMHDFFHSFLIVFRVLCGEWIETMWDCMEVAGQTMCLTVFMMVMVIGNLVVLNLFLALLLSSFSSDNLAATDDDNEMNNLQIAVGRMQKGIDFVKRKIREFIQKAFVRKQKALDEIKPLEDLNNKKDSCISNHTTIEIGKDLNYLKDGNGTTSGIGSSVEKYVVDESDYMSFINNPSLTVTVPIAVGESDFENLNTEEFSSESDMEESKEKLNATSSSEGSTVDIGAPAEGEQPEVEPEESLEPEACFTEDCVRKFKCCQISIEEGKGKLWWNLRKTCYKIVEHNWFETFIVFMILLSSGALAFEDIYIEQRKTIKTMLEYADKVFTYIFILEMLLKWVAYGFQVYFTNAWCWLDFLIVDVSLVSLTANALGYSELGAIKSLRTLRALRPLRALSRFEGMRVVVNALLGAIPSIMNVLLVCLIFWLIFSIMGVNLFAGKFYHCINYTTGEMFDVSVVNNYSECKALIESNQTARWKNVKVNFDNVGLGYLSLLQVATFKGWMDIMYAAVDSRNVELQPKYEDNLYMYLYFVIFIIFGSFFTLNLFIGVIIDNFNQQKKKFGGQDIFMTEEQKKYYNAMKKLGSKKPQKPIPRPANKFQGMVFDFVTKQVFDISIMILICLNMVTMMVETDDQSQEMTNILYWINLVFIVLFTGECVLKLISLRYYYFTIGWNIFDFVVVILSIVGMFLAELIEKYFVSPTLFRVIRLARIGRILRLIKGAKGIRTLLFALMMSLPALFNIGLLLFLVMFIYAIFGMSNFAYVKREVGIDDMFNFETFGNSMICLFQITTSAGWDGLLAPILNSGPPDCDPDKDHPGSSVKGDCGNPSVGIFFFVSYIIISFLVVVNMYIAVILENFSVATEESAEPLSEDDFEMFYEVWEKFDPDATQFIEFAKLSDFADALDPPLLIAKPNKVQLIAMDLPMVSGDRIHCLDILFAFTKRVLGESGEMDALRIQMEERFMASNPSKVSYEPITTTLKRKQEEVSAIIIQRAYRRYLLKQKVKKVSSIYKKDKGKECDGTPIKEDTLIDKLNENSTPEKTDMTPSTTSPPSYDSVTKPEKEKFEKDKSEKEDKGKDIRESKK

Sequence of NaV1.5 (Q14524 whole entry): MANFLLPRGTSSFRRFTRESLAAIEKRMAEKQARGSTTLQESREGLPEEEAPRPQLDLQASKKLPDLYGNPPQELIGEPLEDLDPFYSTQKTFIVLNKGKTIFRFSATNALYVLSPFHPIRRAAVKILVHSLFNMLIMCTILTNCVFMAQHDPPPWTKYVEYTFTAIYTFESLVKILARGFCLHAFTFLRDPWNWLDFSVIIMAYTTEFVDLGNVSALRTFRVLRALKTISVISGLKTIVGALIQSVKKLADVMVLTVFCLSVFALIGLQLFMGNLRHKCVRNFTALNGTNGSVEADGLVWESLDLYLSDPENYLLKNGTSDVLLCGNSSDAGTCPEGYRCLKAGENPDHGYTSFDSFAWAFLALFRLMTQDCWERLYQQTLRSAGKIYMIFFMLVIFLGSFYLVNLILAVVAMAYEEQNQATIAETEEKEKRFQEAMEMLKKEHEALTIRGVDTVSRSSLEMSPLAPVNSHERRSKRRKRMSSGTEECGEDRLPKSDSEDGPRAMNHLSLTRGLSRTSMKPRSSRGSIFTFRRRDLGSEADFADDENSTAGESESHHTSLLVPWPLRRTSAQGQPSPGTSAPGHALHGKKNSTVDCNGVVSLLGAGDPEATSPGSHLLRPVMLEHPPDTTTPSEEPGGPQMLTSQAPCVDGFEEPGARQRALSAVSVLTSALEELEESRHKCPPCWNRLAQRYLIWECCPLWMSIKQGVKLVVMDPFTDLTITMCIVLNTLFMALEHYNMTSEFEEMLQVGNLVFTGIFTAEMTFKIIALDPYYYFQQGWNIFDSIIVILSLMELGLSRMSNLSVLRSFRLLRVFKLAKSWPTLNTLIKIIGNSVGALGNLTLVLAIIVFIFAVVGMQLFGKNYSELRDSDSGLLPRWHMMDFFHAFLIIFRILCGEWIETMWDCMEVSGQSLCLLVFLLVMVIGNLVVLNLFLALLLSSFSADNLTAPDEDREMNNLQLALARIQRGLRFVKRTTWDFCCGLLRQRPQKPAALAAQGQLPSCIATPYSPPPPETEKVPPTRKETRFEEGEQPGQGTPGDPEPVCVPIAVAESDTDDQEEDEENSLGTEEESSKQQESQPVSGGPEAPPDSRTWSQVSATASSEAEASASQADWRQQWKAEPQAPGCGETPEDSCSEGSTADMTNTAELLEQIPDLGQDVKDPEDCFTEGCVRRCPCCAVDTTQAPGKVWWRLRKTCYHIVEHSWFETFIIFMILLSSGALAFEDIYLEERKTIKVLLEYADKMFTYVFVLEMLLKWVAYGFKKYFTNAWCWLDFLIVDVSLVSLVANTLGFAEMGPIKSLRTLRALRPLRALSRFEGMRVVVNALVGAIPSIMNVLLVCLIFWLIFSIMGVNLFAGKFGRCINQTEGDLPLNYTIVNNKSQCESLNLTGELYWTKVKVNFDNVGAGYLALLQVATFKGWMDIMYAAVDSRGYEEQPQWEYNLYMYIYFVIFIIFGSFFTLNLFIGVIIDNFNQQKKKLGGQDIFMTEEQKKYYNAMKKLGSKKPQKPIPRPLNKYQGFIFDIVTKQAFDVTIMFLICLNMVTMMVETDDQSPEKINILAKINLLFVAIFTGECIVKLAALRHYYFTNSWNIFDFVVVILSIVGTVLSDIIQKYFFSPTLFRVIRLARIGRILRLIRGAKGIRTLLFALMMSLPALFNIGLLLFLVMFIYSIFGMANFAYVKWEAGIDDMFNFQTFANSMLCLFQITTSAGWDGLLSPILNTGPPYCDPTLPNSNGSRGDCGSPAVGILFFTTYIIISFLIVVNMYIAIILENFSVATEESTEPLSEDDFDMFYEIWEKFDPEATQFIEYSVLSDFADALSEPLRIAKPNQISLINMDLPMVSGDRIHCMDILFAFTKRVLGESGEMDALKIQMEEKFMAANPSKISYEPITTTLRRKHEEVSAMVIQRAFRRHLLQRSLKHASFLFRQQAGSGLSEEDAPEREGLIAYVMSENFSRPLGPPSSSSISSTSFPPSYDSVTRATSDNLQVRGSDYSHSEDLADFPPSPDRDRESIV

| Compound | EC50 [1] [µM] | Empirical Emax [1] | concentration from which the total area under the curve for the duration of the depolarizing pulse is increased (NaV1.1) [µM] | selectivity against NaV1.5 (NaV1.5) | selectivity against NaV1.2 (NaV1.2) |
| --- | --- | --- | --- | --- | --- |
| Cn1cc2nc(-c3c(-c4ccccc4F)ccnc3N3CCC(F)(F)C3)[nH]c2n1 [Example 80, 5-[2-(3,3-difluoropyrrolidin-1-yl)-4-(2-fluorophenyl)-3-pyridyl]-2-methyl-4H-imidazo[4,5-c]pyrazole] | 1 to 10 | +++ (+++ indicates a value from 5.0 up to 7.5 μM) | – | – | – |
| CCCCNS(=O)(=O)c1ccc(OC)c(-c2nnc3c4ccccc4c(C)nn23)c1 [Lu AE98134] | – | – | ≥ 1 | low selectivity | moderate selectivity |
